Biological target: PARP7 (Homo sapiens (Human), UniProt Q7Z3E1)
Assay: Enzymatic assay for inhibition of PARP7: TR-FRET displacement of biotinylated Probe A from the TIPARP active site
Type: binding
Conditions: Table A-1
Summary of the method: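 Displacement of biotinylated Probe A from TIPARP was measured as the 665/615 nm time-resolved FRET ratio (excitation 320 nm, 90 μs delay) after a further 30 min at 25 °C. Inhibition across compound concentrations was fitted by dose-response regression, with the Hill slope free or fixed at 1 (3-parameter fit).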

Sequence of PARP7 (Q7Z3E1 whole entry): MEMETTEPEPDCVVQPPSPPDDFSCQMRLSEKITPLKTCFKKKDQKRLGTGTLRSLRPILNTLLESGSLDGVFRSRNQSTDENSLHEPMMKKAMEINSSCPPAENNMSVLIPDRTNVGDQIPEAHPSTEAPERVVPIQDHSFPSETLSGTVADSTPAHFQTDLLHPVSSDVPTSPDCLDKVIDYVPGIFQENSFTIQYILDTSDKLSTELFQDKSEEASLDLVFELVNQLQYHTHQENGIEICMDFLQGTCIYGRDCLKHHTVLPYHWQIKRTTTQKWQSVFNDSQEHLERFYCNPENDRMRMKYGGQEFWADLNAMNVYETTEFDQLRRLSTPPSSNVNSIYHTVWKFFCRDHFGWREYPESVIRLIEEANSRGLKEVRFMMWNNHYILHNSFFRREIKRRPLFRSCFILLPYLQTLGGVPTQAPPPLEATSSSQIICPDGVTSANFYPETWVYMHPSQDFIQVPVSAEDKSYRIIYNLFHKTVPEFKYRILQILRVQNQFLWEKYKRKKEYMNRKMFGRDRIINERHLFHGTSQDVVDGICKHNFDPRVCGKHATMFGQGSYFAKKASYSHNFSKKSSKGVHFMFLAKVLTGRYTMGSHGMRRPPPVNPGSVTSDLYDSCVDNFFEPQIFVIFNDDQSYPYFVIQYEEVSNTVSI

Row | Structure (SMILES) | IC50
1 | CC(=O)N1CCC(Oc2cc3c(cn2)CN(c2cn[nH]c(=O)c2C(F)(F)F)C3)CC1 [Example 13] | < 100 nM
2 | CN(C)CCOc1cc2c(cc1F)CN(c1cn[nH]c(=O)c1C(F)(F)F)C2 [Example 14, 5-[5-[2-(dimethylamino)ethoxy]-6-fluoro-2,3-dihydro-1H-isoindol-2-yl]-4-(trifluoromethyl)-2,3-dihydropyridazin-3-one; formic acid] | < 100 nM
3 | O=c1[nH]ncc(N2Cc3ccnc(OCc4cccnc4)c3C2)c1C(F)(F)F [Example 15, 5-[4-(pyridin-3-ylmethoxy)-1H,2H,3H-pyrrolo[3,4-c]pyridin-2-yl]-4-(trifluoromethyl)-2,3-dihydropyridazin-3-one] | < 100 nM
4 | O=c1[nH]ncc(N2Cc3ccnc(OC4CCNCC4)c3C2)c1C(F)(F)F [Example 16, 5-[4-(piperidin-4-yloxy)-1H,2H,3H-pyrrolo[3,4-c]pyridin-2-yl]-4-(trifluoromethyl)-2,3-dihydropyridazin-3-one] | 100 to 1000 nM
5 | O=c1[nH]ncc(N2Cc3ccc(CNc4ccncc4)cc3C2)c1C(F)(F)F [Example 17, 5-(5-[[(pyridin-4-yl)amino]methyl]-2,3-dihydro-1H-isoindol-2-yl)-4-(trifluoromethyl)-2,3-dihydropyridazin-3-one] | < 100 nM
6 | O=c1[nH]ncc(N2Cc3cc(F)c(OCCN4CCOCC4)cc3C2)c1C(F)(F)F [Example 19, 5-[5-fluoro-6-[2-(morpholin-4-yl)ethoxy]-2,3-dihydro-1H-isoindol-2-yl]-4-(trifluoromethyl)-2,3-dihydropyridazin-3-one] | < 100 nM
7 | O=c1[nH]ncc(N2Cc3cc(F)c(OCC4CCNCC4)cc3C2)c1C(F)(F)F [Example 20, 5-[5-fluoro-6-(piperidin-4-ylmethoxy)-2,3-dihydro-1H-isoindol-2-yl]-4-(trifluoromethyl)-2,3-dihydropyridazin-3-one] | < 100 nM
8 | CC(=O)N1CCC(COc2cc3c(cc2F)CN(c2cn[nH]c(=O)c2C(F)(F)F)C3)CC1 [Example 21, 5-[5-[(1-acetylpiperidin-4-yl)methoxy]-6-fluoro-2,3-dihydro-1H-isoindol-2-yl]-4-(trifluoromethyl)-2,3-dihydropyridazin-3-one] | < 100 nM
9 | CN1CCC(COc2cc3c(cc2F)CN(c2cn[nH]c(=O)c2C(F)(F)F)C3)CC1 [Example 22, 5-[5-fluoro-6-[(1-methylpiperidin-4-yl)methoxy]-2,3-dihydro-1H-isoindol-2-yl]-4-(trifluoromethyl)-2,3-dihydropyridazin-3-one] | < 100 nM
10 | O=c1[nH]ncc(N2Cc3cc(F)c(CNC4CCNCC4)cc3C2)c1C(F)(F)F [Example 23, 5-(5-fluoro-6-[[(piperidin-4-yl)amino]methyl]-2,3-dihydro-1H-isoindol-2-yl)-4-(trifluoromethyl)-2,3-dihydropyridazin-3-one] | < 100 nM
11 | CC(=O)N1CCC(NCc2cc3c(cc2F)CN(c2cn[nH]c(=O)c2C(F)(F)F)C3)CC1 [Example 24, 5-(5-[[(1-acetylpiperidin-4-yl)amino]methyl]-6-fluoro-2,3-dihydro-1H-isoindol-2-yl)-4-(trifluoromethyl)-2,3-dihydropyridazin-3-one] | < 100 nM
12 | CN1CCC(NCc2cc3c(cc2F)CN(c2cn[nH]c(=O)c2C(F)(F)F)C3)CC1 [Example 25, 5-(5-fluoro-6-[[(1-methylpiperidin-4-yl)amino]methyl]-2,3-dihydro-1H-isoindol-2-yl)-4-(trifluoromethyl)-2,3-dihydropyridazin-3-one] | < 100 nM
13 | O=c1[nH]ncc(N2Cc3cc(F)c(N4CCOCC4)cc3C2)c1C(F)(F)F [Example 26, 5-[5-fluoro-6-(morpholin-4-yl)-2,3-dihydro-1H-isoindol-2-yl]-4-(trifluoromethyl)-2,3-dihydropyridazin-3-one] | < 100 nM
14 | O=c1[nH]ncc(N2Cc3cccc(OC4CCN(C(c5ccccc5)c5ccccc5)CC4)c3C2)c1C(F)(F)F [Example 27, 5-(4-[[1-(diphenylmethyl)piperidin-4-yl]oxy]-2,3-dihydro-1H-isoindol-2-yl)-4-(trifluoromethyl)-2,3-dihydropyridazin-3-one] | 100 to 1000 nM
15 | O=c1[nH]ncc(N2Cc3ccc(OC4CCN(C(c5ccccc5)c5ccccc5)CC4)cc3C2)c1C(F)(F)F [Example 28, 5-(5-[[1-(diphenylmethyl)piperidin-4-yl]oxy]-2,3-dihydro-1H-isoindol-2-yl)-4-(trifluoromethyl)-2,3-dihydropyridazin-3-one] | < 100 nM
16 | CN(CCOc1cccc(C(=O)N2CCN(c3ccc(C#N)cn3)CC2)c1)c1cn[nH]c(=O)c1C(F)(F)F [Example 29, 6-(4-[[3-(2-[methyl[6-oxo-5-(trifluoromethyl)-1,6-dihydropyridazin-4-yl]amino]ethoxy)phenyl]carbonyl]piperazin-1-yl)pyridine-3-carbonitrile] | < 100 nM

Row | Structure (SMILES) | IC50
17 | N#Cc1ccc(N2CCN(C(=O)c3cccc(OC[C@H]4CCCN4c4cn[nH]c(=O)c4C(F)(F)F)c3)CC2)nc1 [Example 31, 6-[4-[(3-[[(2R)-1-[6-oxo-5-(trifluoromethyl)-1,6-dihydropyridazin-4-yl]pyrrolidin-2-yl]methoxy]phenyl)carbonyl]piperazin-1-yl]pyridine-3-carbonitrile] | ≥ 1000 nM
18 | N#Cc1ccc(N2CCN(C(=O)c3cccc(OC[C@@H]4CCCN4c4cn[nH]c(=O)c4C(F)(F)F)c3)CC2)nc1 [Example 32, 6-[4-[(3-[[(2S)-1-[6-Oxo-5-(trifluoromethyl)-1,6-dihydropyridazin-4-yl]pyrrolidin-2-yl]methoxy]phenyl)carbonyl]piperazin-1-yl]pyridine-3-carbonitrile] | < 100 nM
19 | N#Cc1ccc(N2CCN(C(=O)c3cccc(OC[C@@H]4CCCN4c4cn[nH]c(=O)c4C(F)(F)F)c3)C(CO)C2)nc1 (stereo partly shown) [Example 33] | < 100 nM
20 | N#Cc1ccc(N2CCN(C(=O)c3cccc(OC[C@@H]4CCCN4c4cn[nH]c(=O)c4C(F)(F)F)c3)CC2=O)nc1 [Example 34, 6-[2-oxo-4-[(3-[[(2S)-1-[6-oxo-5-(trifluoromethyl)-1,6-dihydropyridazin-4-yl]pyrrolidin-2-yl]methoxy]phenyl)carbonyl]piperazin-1-yl]pyridine-3-carbonitrile] | < 100 nM
21 | CC[C@@H](COCCC(=O)N1CCN(c2ncc(C(F)(F)F)cn2)CC1)Oc1cn[nH]c(=O)c1C(F)(F)F [Example 37, 5-[[(2S)-1-(3-Oxo-3-[4-[5-(trifluoromethyl)pyrimidin-2-yl]piperazin-1-yl]propoxy)butan-2-yl]oxy]-4-(trifluoromethyl)-2,3-dihydropyridazin-3-one] | < 100 nM
22 | N#Cc1ccc(N2CCN(C(=O)c3ccnc(OC[C@H]4c5ccccc5CN4c4cn[nH]c(=O)c4C(F)(F)F)n3)CC2)nc1 [Example 38 Isomer B, 6-[4-[(2-[[(1R)-2-[6-Oxo-5-(trifluoromethyl)-1,6-dihydropyridazin-4-yl]-2,3-dihydro-1H-isoindol-1-yl]methoxy]pyrimidin-4-yl)carbonyl]piperazin-1-yl]pyridine-3-carbonitrile] | < 100 nM
23 | N#Cc1ccc(N2CCN(C(=O)c3cccc(OCC4CCCCN4c4cn[nH]c(=O)c4C(F)(F)F)c3)CC2)nc1 (stereo not shown) [Example 40, 6-(4-[[3-([1-[6-oxo-5-(trifluoromethyl)-1,6-dihydropyridazin-4-yl]piperidin-2-yl]methoxy)phenyl]carbonyl]piperazin-1-yl)pyridine-3-carbonitrile] | 100 to 1000 nM
24 | N#Cc1ccc(N2CCN(C(=O)c3cccc(OCCNc4cn[nH]c(=O)c4C(F)(F)F)c3)CC2)nc1 [Example 41, 6-(4-[[3-(2-[[6-oxo-5-(trifluoromethyl)-1,6-dihydropyridazin-4-yl]amino]ethoxy)phenyl]carbonyl]piperazin-1-yl)pyridine-3-carbonitrile] | < 100 nM
25 | N#Cc1ccc(N2CCN(C(=O)c3cccc(OCCOc4cn[nH]c(=O)c4C(F)(F)F)c3)CC2)nc1 [Example 42, 6-(4-[[3-(2-[[6-oxo-5-(trifluoromethyl)-1,6-dihydropyridazin-4-yl]oxy]ethoxy)phenyl]carbonyl]piperazin-1-yl)pyridine-3-carbonitrile] | < 100 nM
26 | N#Cc1ccc(N2CCN(C(=O)c3ccc(OCCOc4cccc5c4CN(c4cn[nH]c(=O)c4C(F)(F)F)C5)cc3)CC2)nc1 [Example 43, 6-[4-([4-[2-([2-[6-oxo-5-(trifluoromethyl)-1,6-dihydropyridazin-4-yl]-2,3-dihydro-1H-isoindol-4-yl]oxy)ethoxy]phenyl]carbonyl)piperazin-1-yl]pyridine-3-carbonitrile] | < 100 nM
27 | O=c1[nH]ncc(N2Cc3cc(F)c(OCC4CCCNC4)cc3C2)c1C(F)(F)F (stereo not shown) [Example 44, 5-[5-fluoro-6-(piperidin-3-ylmethoxy)-2,3-dihydro-1H-isoindol-2-yl]-4-(trifluoromethyl)-2,3-dihydropyridazin-3-one] | < 100 nM
28 | CC(=O)N1CCCC(COc2cc3c(cc2F)CN(c2cn[nH]c(=O)c2C(F)(F)F)C3)C1 (stereo not shown) [Example 45, 5-[5-[(1-acetylpiperidin-3-yl)methoxy]-6-fluoro-2,3-dihydro-1H-isoindol-2-yl]-4-(trifluoromethyl)-2,3-dihydropyridazin-3-one] | < 100 nM
29 | N#Cc1ccc(N2CCN(C(=O)c3nccc(OCC4c5ccccc5CN4c4cn[nH]c(=O)c4C(F)(F)F)n3)CC2)nc1 (stereo not shown) [Example 46, 6-(4-[[4-([2-[6-oxo-5-(trifluoromethyl)-1,6-dihydropyridazin-4-yl]-2,3-dihydro-1H-isoindol-1-yl]methoxy)pyrimidin-2-yl]carbonyl]piperazin-1-yl)pyridine-3-carbonitrile] | < 100 nM
30 | N#Cc1ccc(OC2CCC(NC(=O)COC[C@@H]3CCCN3c3cn[nH]c(=O)c3C(F)(F)F)CC2)nc1 (stereo partly drawn) [Example 47, N-[4-[(5-cyanopyridin-2-yl)oxy]cyclohexyl]-2-[[(2S)-1-[6-oxo-5-(trifluoromethyl)-1,6-dihydropyridazin-4-yl]pyrrolidin-2-yl]methoxy]acetamide] | < 100 nM
31 | O=c1[nH]ncc(N2Cc3cc(F)c(OCC4CCCN4)cc3C2)c1C(F)(F)F (stereo not shown) [Example 48, 5-[5-fluoro-6-(pyrrolidin-2-ylmethoxy)-2,3-dihydro-1H-isoindol-2-yl]-4-(trifluoromethyl)-2,3-dihydropyridazin-3-one] | < 100 nM

Reference: patent publication US10550105B2 (Ribon Therapeutics Inc., priority 2018, dated 2020)
